US20250353841A1 (BIOGEN MA INC., priority 2022, published 2025)

Test system: mutant Huntington (HTT) protein
Assay: HTT Mutant HTRF iPSC assay (mHTT protein lowering)
Assay type: cell-based
Conditions: human iPSC derived from a HTT patient with a poly-Q49 mutation

SMILES | IC50 [nM]
Cc1cc(-c2cc(F)c3nc(C4CCNCC4)oc3c2)cc2cn(C)nc12 [Compound 157, 6-(2,7-dimethyl-2H-indazol-5-yl)-4-fluoro-2-(piperidin-4-yl)benzo[d]oxazole] | 100 to 1000
Cc1cn2nc(-c3cc(F)c4nc(C5(F)CCNCC5)cn4c3)cc(C)c2n1 [Compound 158, 6-(8-fluoro-2-(4-fluoropiperidin-4-yl)imidazo[1,2-a]pyridin-6-yl)-2,8-dimethylimidazo[1,2-b]pyridazine] | < 100
Cc1cn2nc(-c3cc(F)c4nc(C56CNC(C5)C6)cn4c3)cc(C)c2n1 [Compound 159] | 100 to 1000
Cc1cn2nc(-c3cc(F)c4nc(C5CCNC5)cn4c3)cc(C)c2n1 (stereo not drawn) [Compound 160, 6-(8-fluoro-2-(pyrrolidin-3-yl)imidazo[1,2-a]pyridin-6-yl)-2,8-dimethylimidazo[1,2-b]pyridazine] | < 100
Cc1cn2nc(-c3cc(F)c4nc([C@H]5[C@@H]6CNC[C@@H]65)cn4c3)cc(C)c2n1 [Compound 161, 6-[2-[(1S,5R)-3-azabicyclo[3.1.0]hexan-6-yl]-8-fluoro-imidazo[1,2-a]pyridin-6-yl]-2,8-dimethyl-imidazo[1,2-b]pyridazine] | < 100
COc1cc2cc(-c3cc(F)c4nc(C5CCNCC5)cn4c3)ccc2cn1 [Compound 164, 6-(8-fluoro-2-(piperidin-4-yl)imidazo[1,2-a]pyridin-6-yl)-3-methoxyisoquinoline] | 100 to 1000
Cc1cn2nc(-c3cc(F)c4nc(C5CCN(CC6CC6)CC5)cn4c3)cc(C)c2n1 [Compound 165, 6-(2-(1-(cyclopropylmethyl)piperidin-4-yl)-8-fluoroimidazo[1,2-a]pyridin-6-yl)-2,8-dimethylimidazo[1,2-b]pyridazine] | < 100
Cc1cn2nc(-c3cc(F)c4nc(C5CCN(C)CC5)cn4c3)cc(C(F)F)c2n1 [Compound 166, 8-(difluoromethyl)-6-(8-fluoro-2-(1-methylpiperidin-4-yl)imidazo[1,2-a]pyridin-6-yl)-2-methylimidazo[1,2-b]pyridazine] | < 100
Cc1cn2nc(-c3cc(F)c4nc(C5CCN(C6CC6)CC5)cn4c3)cc(C(F)F)c2n1 [Compound 167, 6-(2-(1-cyclopropylpiperidin-4-yl)-8-fluoroimidazo[1,2-a]pyridin-6-yl)-8-(difluoromethyl)-2-methylimidazo[1,2-b]pyridazine] | < 100
Cc1cn2nc(-c3cc(F)c4nc(C5CCC(N(C)C)CC5)cn4c3)cc(C)c2n1 (stereo not drawn) [Compound 168, 4-(6-(2,8-dimethylimidazo[1,2-b]pyridazin-6-yl)-8-fluoroimidazo[1,2-a]pyridin-2-yl)-N,N-dimethylcyclohexan-1-amine] | < 100
Cc1cn2nc(-c3cc(F)c4nc(C5CCOCC5)cn4c3)cc(C)c2n1 [Compound 169, 6-(8-fluoro-2-(tetrahydro-2H-pyran-4-yl)imidazo[1,2-a]pyridin-6-yl)-2,8-dimethylimidazo[1,2-b]pyridazine] | 100 to 1000
CN[C@H]1CC[C@H](c2cn3cc(-c4cc(F)c5nn(C)cc5c4)cc(F)c3n2)CC1 [Compound 170, (1r,4r)-4-(8-fluoro-6-(7-fluoro-2-methyl-2H-indazol-5-yl)imidazo[1,2-a]pyridin-2-yl)-N-methylcyclohexan-1-amine] | < 100
Cc1cc(-c2cc(F)c3nc(C4CCN(C5CC5)CC4)cn3c2)nc2cn(C)nc12 [Compound 171, 5-(2-(1-cyclopropylpiperidin-4-yl)-8-fluoroimidazo[1,2-a]pyridin-6-yl)-2,7-dimethyl-2H-pyrazolo[4,3-b]pyridine] | < 100
CCc1nc(C)cn2cc(-c3cc(F)c4nc(C5CCN(C6CC6)CC5)cn4c3)cc12 [Compound 172, 2-(1-cyclopropylpiperidin-4-yl)-6-(1-ethyl-3-methylpyrrolo[1,2-a]pyrazin-7-yl)-8-fluoroimidazo[1,2-a]pyridine] | 100 to 1000
CCN1CCC(c2cn3cc(-c4cc(C)c5nn(C)cc5n4)cc(F)c3n2)CC1 [Compound 173, 5-(2-(1-ethylpiperidin-4-yl)-8-fluoroimidazo[1,2-a]pyridin-6-yl)-2,7-dimethyl-2H-pyrazolo[4,3-b]pyridine] | 100 to 1000
Cc1cn2nc(-c3cc(F)c4nc(C5CCN(CC(F)F)CC5)cn4c3)cc(C)c2n1 [Compound 174, 6-(2-(1-(2,2-difluoroethyl)piperidin-4-yl)-8-fluoroimidazo[1,2-a]pyridin-6-yl)-2,8-dimethylimidazo[1,2-b]pyridazine] | 100 to 1000
CCc1nc(C)cn2cc(-c3cc(F)c4nc(C5CCN(CC)CC5)cn4c3)cc12 [Compound 175, 6-(1-ethyl-3-methylpyrrolo[1,2-a]pyrazin-7-yl)-2-(1-ethylpiperidin-4-yl)-8-fluoroimidazo[1,2-a]pyridine] | 100 to 1000
Cc1cn2nc(-c3cc(F)c4nc([C@H]5C[C@H](CN(C)C)C5)cn4c3)cc(C)c2n1 [Compound 181, 1-((1r,3r)-3-(6-(2,8-dimethylimidazo[1,2-b]pyridazin-6-yl)-8-fluoroimidazo[1,2-a]pyridin-2-yl)cyclobutyl)-N,N-dimethylmethanamine] | < 100

SMILES | IC50 [nM]
Cc1cn2nc(-c3cc(F)c4nc([C@H]5C[C@@H](CN(C)C)C5)cn4c3)cc(C)c2n1 [Compound 182, 1-((1s,3s)-3-(6-(2,8-dimethylimidazo[1,2-b]pyridazin-6-yl)-8-fluoroimidazo[1,2-a]pyridin-2-yl)cyclobutyl)-N,N-dimethylmethanamine] | < 100
Cc1cn2nc(-c3cc(F)c4nc(C5C6CCC5CNC6)cn4c3)cc(C)c2n1 (stereo not drawn) [Compound 183, 6-(2-(3-azabicyclo[3.2.1]]octan-8-yl)-8-fluoroimidazo[1,2-a]pyridin-6-yl)-2,8-dimethylimidazo[1,2-blpyridazine] | 100 to 1000
Cc1cn2nc(-c3cc(F)c4nc(C56CC(C7CNC7)(C5)C6)cn4c3)cc(C)c2n1 [Compound 184] | 100 to 1000
Cc1cn2nc(-c3cc(F)c4nc([C@H]5[C@@H]6CN(C)C[C@@H]65)cn4c3)cc(C)c2n1 [Compound 185, 6-[8-fluoro-2-[(1S,5R)-3-methyl-3-azabicyclo[3.1.0]hexan-6-yl]imidazo[1,2-a]pyridin-6-yl]-2,8-dimethyl-imidazo[1,2-b]pyridazine] | < 100
COCCN1C[C@@H]2[C@H](C1)[C@H]2c1cn2cc(-c3cc(C)c4nc(C)cn4n3)cc(F)c2n1 [Compound 187, 6-(8-fluoro-2-((1R,5S,6r)-3-(2-methoxyethyl)-3-azabicyclo[3.1.0]hexan-6-yl)imidazo[1,2-a]pyridin-6-yl)-2,8-dimethylimidazo[1,2-b]pyridazine] | < 100
CCN1C[C@@H]2[C@H](C1)[C@H]2c1cn2cc(-c3cc(C)c4nc(C)cn4n3)cc(F)c2n1 [Compound 188, 6-(2-((1R,5S,6r)-3-ethyl-3-azabicyclo[3.1.0]hexan-6-yl)-8-fluoroimidazo[1,2-a]pyridin-6-yl)-2,8-dimethylimidazo[1,2-b]pyridazine] | 100 to 1000
Cc1cn2nc(-c3cc(F)c4nc([C@H]5C[C@]6(CCNC6)C5)cn4c3)cc(C)c2n1 [Compound 191, 6-(8-fluoro-2-((2s,4s)-6-azaspiro[3.4]octan-2-yl)imidazo[1,2-a]pyridin-6-yl)-2,8-dimethylimidazo[1,2-b]pyridazine] | < 100
Cc1cn2nc(-c3cc(F)c4nc(C5CCN(C6CCOC6)CC5)cn4c3)cc(C)c2n1 (stereo not drawn) [Compound 192, 6-(8-fluoro-2-(1-(tetrahydrofuran-3-yl)piperidin-4-yl)imidazo[1,2-a]pyridin-6-yl)-2,8-dimethylimidazo[1,2-b]pyridazine] | < 100
Cc1cn2nc(-c3cc(F)c4nc([C@H]5C[C@@]6(CCNC6)C5)cn4c3)cc(C)c2n1 [Compound 193, 6-(8-fluoro-2-((2r,4r)-6-azaspiro[3.4]octan-2-yl)imidazo[1,2-a]pyridin-6-yl)-2,8-dimethylimidazo[1,2-b]pyridazine] | < 100
Cc1cn2nc(-c3cc(F)c4nc(C5CCNCC5)cn4c3)cc(C3CC3)c2n1 [Compound 194, 8-cyclopropyl-6-(8-fluoro-2-(piperidin-4-yl)imidazo[1,2-a]pyridin-6-yl)-2-methylimidazo[1,2-b]pyridazine] | < 100
Cc1cn2nc(-c3cc(F)c4nc(C5CCNCC5)cn4c3)cc2c(C)n1 [Compound 195, 2-(8-fluoro-2-(piperidin-4-yl)imidazo[1,2-a]pyridin-6-yl)-4,6-dimethylpyrazolo[1,5-a]pyrazine] | < 100
Cc1cn2nc(-c3cc(F)c4nc(C5CC=CC5)cn4c3)cc(C)c2n1 [Compound 196, 6-(2-cyclopent-3-en-1-yl-8-fluoro-imidazo[1,2-a]pyridin-6-yl)-2,8-dimethyl-imidazo[1,2-b]pyridazine] | 100 to 1000
CCc1cc(-c2cc(F)c3nc(C4CCNCC4)cn3c2)nn2cc(C)nc12 [Compound 197, 8-ethyl-6-(8-fluoro-2-(piperidin-4-yl)imidazo[1,2-a]pyridin-6-yl)-2-methylimidazo[1,2-b]pyridazine] | < 100
Fc1cc(-c2ncc3cccn3n2)cn2cc(C3CCNCC3)nc12 [Compound 198, 2-(8-fluoro-2-(piperidin-4-yl)imidazo[1,2-a]pyridin-6-yl)pyrrolo[2,1-f][1,2,4]triazine] | 100 to 1000
Fc1cc(-c2ccn3nc(Br)cc3n2)cn2cc(C3CCNCC3)nc12 [Compound 199, 2-bromo-5-(8-fluoro-2-(piperidin-4-yl)imidazo[1,2-a]pyridin-6-yl)pyrazolo[1,5-a]pyrimidine] | 100 to 1000
Cc1cc2nc(-c3cc(F)c4nc(C5CCNCC5)cn4c3)ccn2n1 [Compound 200, 5-(8-fluoro-2-(piperidin-4-yl)imidazo[1,2-a]pyridin-6-yl)-2-methylpyrazolo[1,5-a]pyrimidine] | < 100
Cc1cc2nc(-c3cc(F)c4nc(C5CCNCC5)cn4c3)ncc2s1 [Compound 201, 2-(8-fluoro-2-(piperidin-4-yl)imidazo[1,2-a]pyridin-6-yl)-6-methylthieno[3,2-d]pyrimidine] | 100 to 1000
Cc1cn2nc(-c3cc(F)c4nc([C@H]5C[C@@]6(CCN(C)C6)C5)cn4c3)cc(C)c2n1 [Compound 202, 6-(8-fluoro-2-((2r,4r)-6-methyl-6-azaspiro[3.4]octan-2-yl)imidazo[1,2-a]pyridin-6-yl)-2,8-dimethylimidazo[1,2-b]pyridazine] | < 100
